Experimental data: patent EP1228058B1, “BENZOPYRANYL GUANIDINE DERIVATIVES, PROCESS FOR PREPARATION THEREOF, AND PHARMACEUTICAL COMPOSITIONS CONTAINING THEM” (Dongbu Hannong Chemical Co., Ltd., priority 1999, dated 2001)

Columns and labels:
diabetic rats = experiment: Nociceptive test (hot plate test) in diabetic rats; type: in vivo; settings: 50 °C hot plate
Procedure: Effects on nociceptive responses of test compounds in rats were examined using hot plate. The same methods were applied for the induction of diabetes and treatment of test compound in rats. Rats were placed onto 50 °C hot plate, then latencies of nociceptive action such as licking were determined. The recovery (%) of nociceptive responses in diabetic rats was calculated according to the following mathematical […]. [Mathematical formula 5] Recovery(%) =(Response in treated group - Response in diabetic control)/(Response in normal control-Response in diabetic control)x100 [formula]

ischemic retinal cells = experiment: Protection of ischemic retinal cells (raised intraocular pressure); type: in vivo, rats; settings: vitreous injection 30 min before ischemia
Procedure: Test compounds were dissolved in DMSO to prepare stock solution (100 mM), which was diluted with physiological saline to the concentration of 100, 50 and 30 uM. Test compounds were administered by vitreous injection before 30 min of ischemia.
Adult rats were anaesthetized with ip (intra peritoneum) injection of chloral hydrate (400 mg/Kg), then the right eyes were treated with 1% tropicamide to dilate the pupils. The intraocular pressure (IOP) was raised to 160-180 mmHg, higher than normal blood pressure (140 mmHg), by cannulation of the anterior chamber connected to hydrostatic pressure device. Interruption of blood flow was confirmed ophthalmoscopically, the elevated IOP was maintained for 30 min. After 30 min of ischemia, both eyes were enucleated, and the retina was separated, of which cellular damage was observed. Number of cells in ganglion cell layer (250 x 25 um) and innernuclear layer (150 x 25 um) were counted, then calculated as a % of living cells compared to those of non-operated left eyes as a normal control.

[1] = test system: ischemic heart models of beagle dogs; experiment: Heart protective (anti-ischemic) activity in ischemic heart models of anesthetized beagle dogs; type: in vivo; settings: total dose 2 mg/kg infused i.v. over 40 min, 90 min occlusion, 5 h reperfusion
Procedure: In order to determine whether the compounds of the formula 1 are protective for the ischemic hearts of larger animals, experiments determining the anti-ischemic effects of the compounds on beagle dogs were conducted as follows. The experiments on beagle dogs followed the method of Grover et al.' (G. J. Grover et al., J. Cardiovasc. Pharmacol. 25, 40 (1995)).
After being anesthetized by an intravenous injection of pentobarbital at a dose of 35 mg/kg, male beagle dogs (8-12 kg) were further infused with pentobarbital sodium at a dose of 3-4 mg/kg through the right cephalic vein throughout the experiments, so as to keep the anesthesia constant. […] The heart rate was measured by a tachometer, such as that manufactured by Gould Inc., OH, U.S.A., identified as Biotachometer. In addition, all of the changes occurring during the experiment were continuously recorded through the Gould 2000 chart recorder, manufactured by Gould Inc.
The fifth intercostal space was incised to open the thorax and the LAD was separated from its surrounding tissues. […] The LAD part upstream of the silk ligature was isolated from adjacent tissues and the blood flow was measured quantitatively. […] Using polygraph such as Grass Model 7E, the electrocardiogram was measured and read (Lead II). […]

[2] = test system: angiogenesis induced by Angiotensin II in Sprague-Dawley rats; experiment: Suppression of Angiotensin II induced angiogenesis in implanted sponge (99mTc-DTPA clearance); type: in vivo; settings: AII (100nmol) + test drug, 7 days after injection

Row | SMILES | Nociceptive response (diabetic rats; latency of licking) | Recovery (%) (diabetic rats; nociceptive responses) | Living cell (%) Ganglion Cell layer (ischemic retinal cells; 30 uM) | Living cell (%) Innernuclear layer (ischemic retinal cells; 30 uM) | Living cell (%) Ganglion Cell layer (ischemic retinal cells; 50 uM) | Living cell (%) Innernuclear layer (ischemic retinal cells; 50 uM) | Living cell (%) Ganglion Cell layer (ischemic retinal cells; 100 uM) | Living cell (%) Innernuclear layer (ischemic retinal cells; 100 uM) | Anti-ischemic Activity (in vivo, dogs) (2 mg/kg/40 i.v.) min,i.v.) IZ/AAR (%) [1] | Clearance of ^99mTC (%) ([2]; Dose 0.1 mg/kg (p.o)) | Clearance of ^99mTC (%) ([2]; Dose 0.3 mg/kg (p.o)) | Clearance of ^99mTC (%) ([2]; Dose 1.0 mg/kg (p.o))
1 | COC(OC)[C@@]1(C)Oc2ccc(N)cc2[C@@H](NC(=NC#N)NCc2ccccc2)[C@@H]1O [Example 40, (2S, 3S, 4R)-N''-cyano-N-(6 - amino-3,4-dihydro-3-hydroxy-2-methyl-2-dimethoxymethyl-2H-benzopyran-4-yl)-N'-benzylguanidine] | 4.791 s | 106.5% | 40.7% | 54.8% | 60.2% | 69.8% | 77.9% | 82.6% | – | – | – | –
2 | COC(OC)[C@@]1(C)Oc2ccc([N+](=O)[O-])cc2[C@H](NC(=NC#N)NCc2ccccc2)[C@H]1O [Example 24, (2S, 3R, 4S)-N''-cyano-N-(6-nitro-3,4-dihydro-3-hydroxy-2-methyl-2-dimethoxymethyl-2H-benzopyran-4-yl)-N'-benzylguanidine] | – | – | – | – | – | – | – | – | 28.03% | 26.90% | 18.22% | 3.38%
